Experimental data taken from patent publication US4533655A, “Analgesic dipeptide amides and method of use and compositions thereof” (Sterling Drug Inc., priority 1982, dated 1985).

Tests used:
[1] = test system: guinea pig ileum longitudinal muscle (electrically induced twitch); assay: Guinea pig ileum test; format: cell-based; conditions: ratio of IC50 of reference Met^5-enkephalin to IC50 of test compound in same preparation, averaged (N=4); Met^5-enkephalin = 100
Procedure: Adult male guinea pigs (Charles River, Hartley strain) weighing 300-500 g. are decapitated, and the terminal ileum is exposed by reflecting the overlying cecum, severed at the ileocecal juncture, and removed while cutting the mesenteric attachments to avoid excessive traction on the tissue. The ileum (about 30 cm. in length) is transferred to a beaker containing warm modified Krebs-Henseleit solution (118 mM sodium chloride, 4.75 mM potassium chloride, 2.54 mM calcium chloride, 1.19 mM potassium dihydrogen phosphate, 1.2 mM magnesium sulfate, 25 mM sodium bicarbonate, 11 mM glucose, 20 μM choline chloride and 0.125 μM pyrilamine maleate). The terminal (aboral) portion (about 10 cm. in length) is discarded, and segments (3-4 cm. in length) are cut from the remainder and gently slid onto a glass rod (5-6 mm. in diameter) and arranged so that the mesenteric attachment is in a straight line. A cotton swab moistened in the solution is then carefully used to separate the longitudinal muscle from the underlying circular muscle. The longitudinal muscle and adhering myenteric plexus is then gently removed from the remaining tissue with forceps.
Strips of this prepared longitudinal muscle are mounted in a double-jacketed organ bath (5 ml.) under tension (1.0 g.), connected to isometric transducers (Grass FT 0.03), bathed in the modified Krebs-Henseleit solution described above, aerated with oxygen-carbon dioxide (95:5) and maintained at 37° C.
Stimulators (Grass S-44) are set to deliver repetitive monophasic square wave field stimulation (supramaximal voltage, 0.10 Hz., 0.25 msec. duration) through platinum ring electrodes at the top and bottom of the bath. Regular contractions of the muscle, which result from electrically-induced liberation of acetylcholine from postganglionic parasympathetic nerves, are recorded on a polygraph (Grass model 5). Following tissue equilibration (45-60 min.) and repeated washing (every 10 min.) an aqueous solution of a reference or test compound is added to the bath in a microliter volume (1.25-250 μl) and reductions in muscle twitch height are recorded. More compound can be added […] first washing the preparation.
From the results a half-mazimal inhibitory concentration (IC50) value for the compound is computed by regression analysis of a linear plot of logarithm of concentration against percent of inhibition of twitch height (probits). The ratio of the IC50 value of a reference compound to that of a test compound tested in the same preparation is the molar potency ratio. Usually four preparations are tested simultaneously by the same person (N=4), and the resulting four molar potency ratios are averaged.
The following results were obtained using the examples as test compounds and Met^5 -enkephalin as the reference compound.

[2] = test system: Male Swiss-Webster mice; assay: Mouse acetylcholine writhing test; format: in vivo; conditions: 20 min, subcutaneous, acetylcholine 3.2 mg./kg. i.p. 20 min after dosing, 95% confidence limits in parentheses
Procedure: Male Swiss-Webster mice each weighing 18-24 g. are treated subcutaneously (10 ml./kg. injection volume) or orally with the test compound in an aqueous vehicle. Twenty minutes thereafter each mouse is injected intraperitoneally with acetylcholine (3.2 mg./kg.) in aqueous sodium chloride (0.9%). This dose of acetylcholine causes one or more characteristic writhes in the two minute period following injection in control mice which receive the aqueous vehicle not containing the test compound. […] Test compounds are screened at doses of 100 and 30 mg./kg. subcutaneously and 300 and 100 mg./kg. orally using 15 mice at each dose level. ED50 values for active compounds are estimated by probit analysis of quantal scores at four or more dose levels using 15 mice at each dose level.

[3] = test system: rat; conditions: rat tail flick, relative to morphine, cited from earlier work
[4] = test system: mouse vas deferens; conditions: cited from earlier work
[5] = test system: guinea pig ileum; conditions: cited from earlier work

| Compound | Average Molar Potency Ratio [1] | ED50 [2] [mg/kg] | also measured |
| --- | --- | --- | --- |
| C[C@H](C(=O)NCCCc1ccc(F)cc1)N(C)C(=O)[C@@H](N)Cc1ccc(O)cc1 [Example 7, L-tyrosyl-N^2-methyl-N-[3-(4-fluorophenyl)propyl]-D-alaninamide] | 178 |  |  |
| C[C@H](C(=O)NCCCc1ccc(C(F)(F)F)cc1)N(C)C(=O)[C@@H](N)Cc1ccc(O)cc1 [Example 6, L-tyrosyl-N^2-methyl-N-[3-(4-trifluoromethylphenyl)propyl]-D-alaninamide] | 13 |  |  |
| CN[C@@H](Cc1ccc(O)cc1)C(=O)N[C@H](C)C(=O)NCCCc1ccccc1 [Example 2, N-methyl-L-tyrosyl-N-(3-phenylpropyl)-D-alaninamide] | 194 | 10 to 30 |  |
| C[C@@H](NC(=O)[C@@H](N)Cc1ccc(O)cc1)C(N)=O [H-Tyr-D-Ala-NH2] |  |  | times less potent than morphine, intravenously ([3]; intravenous): greater than 10 times; times less potent than morphine, intraventricularly ([3]; intraventricular): 200 times |
| CCN(C(=O)[C@@H](N)Cc1ccc(O)cc1)[C@H](C)C(=O)NCCCc1ccccc1 [Example 4, L-tyrosyl-N^2-ethyl-N-(3-phenylpropyl)-D-alaninamide] | 12 |  |  |
| CN[C@@H](Cc1ccc(O)cc1)C(=O)N(C)[C@H](C)C(=O)NCCCc1ccccc1 [Example 3, N-methyl-L-tyrosyl-N^2-methyl-N-(3-phenylpropyl)-D-alaninamide] | 200 | 9.4 |  |
| C[C@H](C(=O)NCCCc1ccc(Cl)cc1)N(C)C(=O)[C@@H](N)Cc1ccc(O)cc1 [Example 5, L-tyrosyl-N^2-methyl-N-[3-(4-chlorophenyl)propyl]-D-alaninamide] | 51 |  |  |
| C[C@H](C(=O)NCCCc1ccccc1)N(C)C(=O)[C@@H](N)Cc1ccc(O)cc1 [Example 1, L-tyrosyl-N^2-methyl-N-(3-phenylpropyl)-D-alaninamide] | 293 | 5.5 |  |
| Met^5 -enkephalin [reference compound] | 100 |  |  |
| C[C@@H](NC(=O)[C@@H](N)Cc1ccc(O)cc1)C(=O)NCCNCCc1ccccc1 [HTyrD-AlaNH(CH2)2 NH(CH2)2 Phenyl] |  |  | potency relative to Met-enkephaline [4]: < 1%; potency relative to Met-enkephaline [5]: < 1% |
